Data published in patent publication US11912647B2, “Diversity-oriented synthesis of N,N,O-trisubstituted hydroxylamines from alcohols and amines by N—O bond formation” (University of Georgia Research Foundation, Inc., priority 2020, dated 2024).

Key:
[1] = tested on: human hepatocarcinoma cell line HepG2; settings: cited from earlier work

| melting point | Compound | IC50 [1] | activity toward HepG2 relative to kalkitoxin ([1]; hydroxalog versus parent natural product) |
| --- | --- | --- | --- |
| 77.6 to 78.8 °C | CC(C)(C)ON1CCN(c2ccc(C(F)(F)F)cc2)CC1 |  |  |
| 92 to 93 °C | CC(C)(C)ON1CCN(c2cccc(Cl)c2Cl)CC1 |  |  |
|  | 10-aza-9-oxakalkitoxin | 2.4 ng/mL | complete retention of activity |
|  | kalkitoxin | 3.2 ng/mL |  |
